Experiment: xn = mol fraction of the nth substance listed
Conditions: 100 kPa, x2 = 0

O + CC[n+]1ccn(C)c1.CS(=O)(=O)[O-]
Conditions | electrical conductivity [S/m] | speed of sound [m/s] | viscosity [mPa·s]
293.15 K | – | – | 1.002
303.15 K | 0.0001 | – | 0.797
313.15 K | 0.0002 | 1529.2 | 0.653
318.15 K | – | 1536.7 | –
343.15 K | 0.0018 | 1555.1 | 0.4039
353.15 K | 0.0023 | – | 0.3544

Reference: a compilation of properties of binary mixtures (doi:10.1021/acs.iecr.1c02970)
